Laboratory results reported in PubChem BioAssay (NCI).
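Growth conditions: 96-well plates. Treatment: test compound, 48 hours, 5 concentrations. Analysis: linear interpolation between bracketing concentrations; unreached endpoints set to highest concentration. TGI marks complete inhibition of growth.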

How the values were obtained:
Assay in all cases: NCI-60 cell line screen, 48 h
[1] = test system: KM12 colon
[2] = test system: HCC-2998 colon
[3] = test system: HT29 colon
[4] = test system: TK-10 renal
[5] = test system: XF 498 CNS
[6] = test system: NCI-H226 lung
[7] = test system: A498 renal
[8] = test system: SNB-19 CNS
[9] = test system: EKVX NSCLC
[10] = test system: DMS 114 small cell lung
[11] = test system: SNB-78 CNS
[12] = test system: UO-31 renal
[13] = test system: SNB-75 CNS
[14] = test system: COLO 205 colon
[15] = test system: LXFL 529 NSCLC
[16] = test system: UACC-62 melanoma
[17] = test system: CAKI-1 renal
[18] = test system: SN12C renal
[19] = test system: A549 NSCLC
[20] = test system: ACHN renal
[21] = test system: NCI-H23 lung
[22] = test system: SK-MEL-5 melanoma
[23] = test system: UACC-257 melanoma
[24] = test system: 786-0 renal
[25] = test system: SK-MEL-28 melanoma
[26] = test system: LOX IMVI melanoma
[27] = test system: MALME-3M melanoma
[28] = test system: NCI-H522 lung
[29] = test system: SW-620 colon
[30] = test system: OVCAR-5 ovarian
[31] = test system: OVCAR-3 ovarian
[32] = test system: K-562 leukemia
[33] = test system: KM20L2 colon
[34] = test system: OVCAR-8 ovarian
[35] = test system: U251 CNS
[36] = test system: HOP-92 NSCLC
[37] = test system: SF-539 CNS
[38] = test system: SK-OV-3 ovarian
[39] = test system: OVCAR-4 ovarian
[40] = test system: DMS 273 small cell lung
[41] = test system: HL-60(TB) leukemia
[42] = test system: SF-268 CNS
[43] = test system: HOP-62 NSCLC
[44] = test system: HCT-116 colon
[45] = test system: M14 melanoma
[46] = test system: IGROV1 ovarian
[47] = test system: MOLT-4 leukemia
[48] = test system: SF-295 CNS
[49] = test system: HOP-18 NSCLC
[50] = test system: RPMI-8226 leukemia
[51] = test system: CCRF-CEM leukemia
[52] = test system: SK-MEL-2 melanoma
[53] = test system: RXF 393 renal
[54] = test system: SR leukemia
[55] = test system: M19-MEL melanoma
[56] = test system: DLD-1 colon
[57] = test system: NCI-H460 lung
[58] = test system: HCT-15 colon

Measured: TGI

Cc1cc(C)nc(NS(=O)(=O)c2ccc(NC(=O)c3ccc(Cl)c4c(Nc5ccc(S(=O)(=O)N=C(N)N)cc5)c5ccccc5nc34)cc2)n1
96.1 µM: [24]
93.6 µM: [10]
30.2 µM: [3]
17.5 µM: [21]
63.2 µM: [47]
76 µM: [29]
44.4 µM: [26]
68.7 µM: [18]
> 100 µM: [1] | [4] | [5] | [6] | [7] | [8] | [9] | [11] | [12] | [13] | [14] | [15] | [16] | [17] | [19] | [20] | [22] | [23] | [25] | [27] | [30] | [31] | [32] | [33] | [34] | [35] | [37] | [38] | [39] | [40] | [42] | [43] | [44] | [45] | [46] | [48] | [49] | [50]
36.1 µM: [28]
67.7 µM: [36]
78.2 µM: [2]
25.1 µM: [41]

COc1ccc(/C=c2/sc3n(c2=O)NC(c2ccc(Cl)cc2)NN=3)cc1 (stereo not given)
> 100 µM: [1] | [2] | [51] | [3] | [4] | [5] | [6] | [8] | [9] | [10] | [52] | [11] | [12] | [53] | [14] | [15] | [16] | [17] | [18] | [19] | [21] | [54] | [22] | [24] | [25] | [55] | [26] | [27] | [28] | [29] | [30] | [31] | [32] | [33] | [34] | [35] | [36] | [37] | [38] | [39] | [40] | [56] | [42] | [44] | [45] | [46] | [47] | [48] | [57]
78.1 µM: [13]

COC(=O)C(=O)C(C(=O)C=C(C)C)C(=O)C(=O)Nc1nc2ccc([N+](=O)[O-])cc2s1 (stereo not given)
94.7 µM: [17]
66.4 µM: [46]
74.2 µM: [36]
91 µM: [7]
45.2 µM: [53]
78.9 µM: [28]
54.6 µM: [49]
63.7 µM: [13]
> 100 µM: [1] | [2] | [51] | [3] | [4] | [6] | [8] | [9] | [10] | [52] | [11] | [12] | [14] | [15] | [16] | [58] | [18] | [19] | [20] | [21] | [22] | [23] | [24] | [25] | [55] | [26] | [27] | [29] | [30] | [31] | [32] | [33] | [34] | [35] | [37] | [38] | [39] | [40] | [56] | [41] | [42] | [43] | [44] | [45] | [47] | [50] | [57]
